US20110045522A1, “METHODS FOR DIAGNOSING DIABETES AND DETERMINING EFFECTIVENESS OF TREATMENTS” (priority 2009, published 2011)

How the values were obtained:
[1] = test system: IL-1Ra production in human kidney proximal tubular cell line (HK-2); assay: IL-1Ra production in HK-2 cell culture media, ELISA; assay type: cell-based; conditions: HK-2 cells; for concentration of IL-1Ra: FIG. 1B
Description: Human kidney proximal cell line is commercially available and may be purchased, for example, from American Type Culture Collection (ATCC) under the symbol HK-2.
The immortalized human kidney proximal tubular cell line (HK-2) was cultured in DMEM/F12 containing 2.50 g/l HEPES, 1.80 g/l sodium bicarbonate, 100 U/ml penicillin, […] streptomycin, and 10% FCS at 37° C. in 5% CO2. After being digested with 0.25% trypsin, 1×10^5 cells were grown in 50 ml plastic culture bottles. The cells were cultured overnight in DMEM/F12 5% FCS; then, media were changed to fresh DMEM/F12 5% FCS containing diacerin with various concentrations of 2.0 μg/ml, 2.5 μg/ml, 3.0 μg/ml, 5.0 μg/ml, 10 μg/ml, 20 μg/ml, and negative (5% FCS) controls. Cultures were continued for further time points of 0 hour, 0.5 hour, 1 hour, 3 hours, 5 hours, 8 hours, 16 hours, 32 hours, and 72 hours. Upon reaching each time point, the media were collected. The cell culture method is well explained in Yao, et al, Preventive Effects of Salvianolic Acid on Transforming Growth Factorb 1-Induced Epithelial-to-Mesenchymal Transition of Human Kidney Cells, Biol. Pharm. Bull. 2009, 32(5) 882-886.
The collected media at each time point and concentration were assayed for IL-1Ra concentrations using ELISA assays.

IL-1β = conditions: human OA cartilage and synovial tissue cultures; cited from earlier work
[2] = test system: IL-1 receptor antagonist (IL-1Ra); conditions: cartilage culture media; cited from earlier work
INS-1E cells = conditions: reported in the literature; positive control; cited from earlier work

## CC(=O)Oc1cccc2c1C(=O)c1c(OC(C)=O)cc(C(=O)O)cc1C2=O [diacerin, 4,5-bis(acetyloxy)-9,10-dioxo-2-anthracene carboxylic acid]
[1]; 5 μg/ml diacerin, 16 hours treatment
  concentration of IL-1Ra: approximately 0.8 pg/ml
[1]; 10 μg/ml diacerin, 16 hours treatment
  concentration of IL-1Ra: approximately 1.3 pg/ml
[1]; 20 μg/ml diacerin, 16 hours treatment
  concentration of IL-1Ra: approximately 4.2 pg/ml
[1]; 16 hours treatment
  concentration at which IL-1Ra production was first observed: 5 µg/mL
  effect on IL-1Ra production: dose-dependently increased
[1]; 32 hours treatment
  dose-dependent effect on production of IL-1Ra: diminished
[1]; 72 hours treatment
  dose-dependent effect on production of IL-1Ra: diminished
IL-1β
  IL-1β production: significantly inhibited
[2]
  IL-1Ra levels: increased

## O=C(O)c1cc(O)c2c(c1)C(=O)c1cccc(O)c1C2=O [rhein, 9,10-dihydro-4,5-dihydroxy-9,10-dioxo-2-anthracenecarboxylic acid]
IL-1β
  IL-1β production: significantly inhibited
[2]
  IL-1Ra levels: increased

## Exendin-4: positive control, reported to inhibit IL-1β-induced INS-1E cell apoptosis
INS-1E cells
  IL-1β-induced INS-1E cell apoptosis: inhibit
